# Like-named read-outs stand apart in the source and are kept apart here.
# Columns and labels:
# Capan-1 (K-Ras G12V) = assay: CellTiter-Glo cell viability assay, 5-day treatment; type: cell-based; conditions: Homo sapiens, CAPAN-1, 120 h, 5-day treatment; read-out: Capan-1 Cell Viability assay data (K-Ras G12V, IC50)
# Method in brief: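 Five-day compound treatment of plated cells; luminescent read after ~30 min at RT. Percent-of-DMSO data fit to a four-parameter logistic model.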
# KRAS G12C = KRAS G12C (Homo sapiens, UniProt P01116+P62937, G12C); assay: Disruption of BRAF RBD interaction with Ras (FRET / MOA assay, with Cyclophilin A); type: biochemical
# Method in brief: (§1)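 First, compounds at a ten-point threefold dilution series (highest final concentration 30 μM) were incubated with nucleotide-loaded K-Ras, Cyclophilin A and BRAF RBD for 3 h at 25 °C. Next, detection antibodies were added for 1.5 h. Finally, IC50 was calculated from TR-FRET ratio decreases against DMSO controls.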
# KRAS G12D = KRAS G12D (Homo sapiens, UniProt P01116+P62937, G12D); assay: as above; type: biochemical
# Method in brief: as §1
# KRAS G13D = KRAS G13D (Homo sapiens, UniProt P01116+P62937, G13D); assay: as above; type: biochemical
# Method in brief: as §1
# NRAS G12C = NRAS G12C (Homo sapiens, UniProt P01111+P62937, G12C); assay: as above; type: biochemical
# KRAS WT = KRAS WT (Homo sapiens, UniProt P01116+P62937); assay: as above; type: biochemical
# Method in brief: as §1
# KRAS G13C = KRAS G13C (Homo sapiens, UniProt P01116+P62937, G13C); assay: as above; type: biochemical
# Method in brief: as §1
# KRAS G12V = KRAS G12V (Homo sapiens, UniProt P01116+P62937, G12V); assay: as above; type: biochemical
# Method in brief: as §1
# KRAS G12S = KRAS G12S (Homo sapiens, UniProt P01116+P62937, G12S); assay: as above; type: biochemical
# Method in brief: as §1
# [1] = read-out: KRAS G12C FRET data, IC50
# [2] = read-out: KRAS G12D FRET data, IC50
# [3] = KRAS G13D, read-out: KRAS G13D FRET data IC50
# [4] = NRAS G12C, read-out: NRAS G12C FRET data IC50
# [5] = KRAS WT, read-out: KRAS WT FRET data IC50
# [6] = read-out: KRAS G13C FRET data, IC50
# [7] = KRAS G12V, read-out: KRAS G12V FRET data IC50
# [8] = read-out: KRAS G12S FRET data, IC50
# KRAS G12S, sequence (P01116 1-169 isoform P01116-2 G12S limits assumed): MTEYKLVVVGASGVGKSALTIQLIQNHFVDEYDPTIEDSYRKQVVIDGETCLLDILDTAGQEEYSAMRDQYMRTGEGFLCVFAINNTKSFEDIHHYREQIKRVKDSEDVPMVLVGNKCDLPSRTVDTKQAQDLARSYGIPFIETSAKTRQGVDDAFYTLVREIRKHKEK
# KRAS G12S, sequence (P62937 whole entry): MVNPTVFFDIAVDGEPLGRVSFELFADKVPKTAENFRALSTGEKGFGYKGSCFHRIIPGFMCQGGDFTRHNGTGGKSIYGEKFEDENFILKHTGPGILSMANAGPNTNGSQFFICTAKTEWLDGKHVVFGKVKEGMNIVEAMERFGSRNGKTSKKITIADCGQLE
# KRAS G12V, sequence (P01116 1-169 isoform P01116-2 G12V limits assumed): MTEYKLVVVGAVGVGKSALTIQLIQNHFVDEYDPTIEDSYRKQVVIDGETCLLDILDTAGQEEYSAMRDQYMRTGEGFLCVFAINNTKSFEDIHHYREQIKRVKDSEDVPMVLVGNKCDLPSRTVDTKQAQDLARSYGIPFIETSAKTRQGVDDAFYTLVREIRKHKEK
# KRAS G12V, sequence (P62937 whole entry): as the sequence (P62937 whole entry) above
# KRAS G12D, sequence (P01116 1-169 isoform P01116-2 G12D limits assumed): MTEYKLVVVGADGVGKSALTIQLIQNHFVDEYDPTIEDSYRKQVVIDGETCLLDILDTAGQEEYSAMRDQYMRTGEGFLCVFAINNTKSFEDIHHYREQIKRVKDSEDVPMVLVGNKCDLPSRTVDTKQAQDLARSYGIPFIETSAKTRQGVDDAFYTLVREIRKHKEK
# KRAS G12D, sequence (P62937 whole entry): as the sequence (P62937 whole entry) above
# KRAS G13C, sequence (P01116 1-169 isoform P01116-2 G13C): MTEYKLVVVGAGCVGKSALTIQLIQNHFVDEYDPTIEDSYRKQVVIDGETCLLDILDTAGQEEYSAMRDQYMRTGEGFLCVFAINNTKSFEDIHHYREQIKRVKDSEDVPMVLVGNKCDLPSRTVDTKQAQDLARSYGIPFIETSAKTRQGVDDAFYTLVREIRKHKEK
# KRAS G13C, sequence (P62937 whole entry): as the sequence (P62937 whole entry) above
# KRAS G13D, sequence (P01116 1-169 isoform P01116-2 G13D limits assumed): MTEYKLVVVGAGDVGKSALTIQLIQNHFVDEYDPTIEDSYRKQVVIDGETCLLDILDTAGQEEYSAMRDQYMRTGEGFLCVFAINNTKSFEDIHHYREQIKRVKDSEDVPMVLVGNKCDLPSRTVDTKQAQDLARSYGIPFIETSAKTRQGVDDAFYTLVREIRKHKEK
# KRAS G13D, sequence (P62937 whole entry): as the sequence (P62937 whole entry) above
# NRAS G12C, sequence (P01111 whole entry G12C): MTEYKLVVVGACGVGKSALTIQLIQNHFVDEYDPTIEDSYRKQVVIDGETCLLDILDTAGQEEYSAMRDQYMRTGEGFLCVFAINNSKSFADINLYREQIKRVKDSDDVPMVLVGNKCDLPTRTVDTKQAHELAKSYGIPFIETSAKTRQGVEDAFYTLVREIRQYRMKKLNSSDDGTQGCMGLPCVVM
# NRAS G12C, sequence (P62937 whole entry): as the sequence (P62937 whole entry) above
# KRAS WT, sequence (P01116 1-169 isoform P01116-2 limits assumed): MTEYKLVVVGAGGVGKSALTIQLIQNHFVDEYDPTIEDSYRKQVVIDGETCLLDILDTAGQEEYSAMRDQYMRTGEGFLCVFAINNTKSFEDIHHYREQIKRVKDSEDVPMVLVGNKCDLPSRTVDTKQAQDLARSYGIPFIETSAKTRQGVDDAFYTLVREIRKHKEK
# KRAS WT, sequence (P62937 whole entry): as the sequence (P62937 whole entry) above
# KRAS G12C, sequence (P01116 1-169 isoform P01116-2 G12C): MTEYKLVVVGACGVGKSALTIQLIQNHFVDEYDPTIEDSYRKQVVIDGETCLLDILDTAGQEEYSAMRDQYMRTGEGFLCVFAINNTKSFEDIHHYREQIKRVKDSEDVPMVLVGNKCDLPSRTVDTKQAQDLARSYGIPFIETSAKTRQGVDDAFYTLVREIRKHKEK
# KRAS G12C, sequence (P62937 whole entry): as the sequence (P62937 whole entry) above
SMILES,IC50 (KRAS G12C; [1]) [µM],IC50 (KRAS G12D; [2]) [µM],IC50 (KRAS G13D; [3]) [µM],IC50 (NRAS G12C; [4]) [µM],IC50 (KRAS WT; [5]) [µM],IC50 (KRAS G13C; [6]) [µM],IC50 (KRAS G12V; [7]) [µM],IC50 (KRAS G12S; [8]) [µM],"IC50 (KRAS G12C; KRAS G12C FRET data, IC50) [µM]","IC50 (KRAS G12D; KRAS G12D FRET data, IC50) [µM]","IC50 (KRAS G13D; KRAS G13D FRET data IC50, KRAS G13D) [µM]","IC50 (NRAS G12C; NRAS G12C FRET data IC50, NRAS G12C) [µM]","IC50 (KRAS WT; KRAS WT FRET data IC50, KRAS WT) [µM]","IC50 (KRAS G13C; KRAS G13C FRET data, IC50) [µM]","IC50 (KRAS G12V; KRAS G12V FRET data IC50, KRAS G12V) [µM]","IC50 (KRAS G12S; KRAS G12S FRET data, IC50) [µM]",IC50 (Capan-1 (K-Ras G12V)) [µM]
CCn1c(-c2cnccc2COC)c2c3cc(ccc31)-c1cc(O)cc(c1)C[C@H](NC(=O)[C@H]([C@@H](C)OC)N(C)C(C)=O)C(=O)N1CCC[C@H](N1)C(=O)OCC(C)(C)C2 [Example A76],0.1 to 1,1 to 10,0.1 to 1,0.1 to 1,0.1 to 1,0.1 to 1,0.1 to 1,0.1 to 1,–,–,–,–,–,–,–,–,1 to 10
CCn1c(-c2cccnc2[C@H](C)OC)c2c3cc(ccc31)-c1cccc(c1)C[C@H](NC(=O)[C@H](C(C)C)N(C)C(=O)[C@H]1CCN(C(=O)CN(C)C)C1)C(=O)N1CCC[C@H](N1)C(=O)OCC(C)(C)C2 [Example A96],0.1 to 1,1 to 10,1 to 10,0.1 to 1,1 to 10,0.1 to 1,1 to 10,1 to 10,–,–,–,–,–,–,–,–,1 to 10
CCn1c(-c2cccnc2[C@H](C)OC)c2c3cc(ccc31)-c1cccc(c1)C[C@H](NC(=O)[C@H](C(C)C)N(C)C(=O)[C@H]1CCN(C(=O)CNC)C1)C(=O)N1CCC[C@H](N1)C(=O)OCC(C)(C)C2 [Example A98],–,–,–,–,–,–,–,–,0.1 to 1,1 to 10,1 to 10,0.1 to 1,1 to 10,0.1 to 1,1 to 10,1 to 10,> 10
CCn1c(-c2cccnc2[C@H](C)OC)c2c3cc(ccc31)-c1cc(O)cc(c1)C[C@H](NS(=O)(=O)CCN(C)C)C(=O)N1CCC[C@H](N1)C(=O)OCC(C)(C)C2 (racemic) [Example A190],> 10,> 10,> 10,> 10,> 10,> 10,> 10,> 10,–,–,–,–,–,–,–,–,> 10
CCn1c(-c2cccnc2[C@H](C)OC)c2c3cc(ccc31)-c1cc(O)cc(c1)C[C@H](NS(=O)(=O)c1cnc[nH]1)C(=O)N1CCC[C@H](N1)C(=O)OCC(C)(C)C2 (racemic) [Example A192],> 10,> 10,> 10,> 10,> 10,> 10,> 10,> 10,–,–,–,–,–,–,–,–,> 10
CCn1c(-c2cccnc2[C@H](C)OC)c2c3cc(ccc31)-c1csc(n1)C[C@H](NC(=O)[C@H](C(C)C)N(C)C(=O)[C@H]1CCN(C)C1)C(=O)N1CCC[C@H](N1)C(=O)OCC(C)(C)C2 [Example A108],1 to 10,1 to 10,1 to 10,1 to 10,1 to 10,1 to 10,> 10,1 to 10,–,–,–,–,–,–,–,–,> 10

# Further lines, with some results ahead:
IC50 (KRAS G12C; [1]) [µM],IC50 (KRAS G12D; [2]) [µM],IC50 (KRAS G13D; [3]) [µM],IC50 (NRAS G12C; [4]) [µM],IC50 (KRAS WT; [5]) [µM],IC50 (KRAS G13C; [6]) [µM],IC50 (KRAS G12V; [7]) [µM],IC50 (KRAS G12S; [8]) [µM],"IC50 (KRAS G12C; KRAS G12C FRET data, IC50) [µM]","IC50 (KRAS G12D; KRAS G12D FRET data, IC50) [µM]","IC50 (KRAS G13D; KRAS G13D FRET data IC50, KRAS G13D) [µM]","IC50 (NRAS G12C; NRAS G12C FRET data IC50, NRAS G12C) [µM]","IC50 (KRAS WT; KRAS WT FRET data IC50, KRAS WT) [µM]","IC50 (KRAS G13C; KRAS G13C FRET data, IC50) [µM]","IC50 (KRAS G12V; KRAS G12V FRET data IC50, KRAS G12V) [µM]","IC50 (KRAS G12S; KRAS G12S FRET data, IC50) [µM]",SMILES,IC50 (Capan-1 (K-Ras G12V)) [µM]
0.01 to 0.1,0.01 to 0.1,0.01 to 0.1,0.01 to 0.1,0.01 to 0.1,0.01 to 0.1,0.01 to 0.1,0.01 to 0.1,–,–,–,–,–,–,–,–,CCn1c(-c2cccnc2[C@H](C)OC)c2c3cc(ccc31)-c1cc(O)cc(c1)C[C@H](NC(=O)[C@H](C(C)C)N(C)C(=O)[C@H]1CCN(C(=O)[C@@]3(C)CCCN3)C1)C(=O)N1CCC[C@H](N1)C(=O)OCC(C)(C)C2 [Example A135],1 to 10
1 to 10,1 to 10,1 to 10,1 to 10,1 to 10,0.1 to 1,> 10,1 to 10,–,–,–,–,–,–,–,–,CCn1c(-c2cccnc2[C@H](C)OC)c2c3cc(ccc31)-c1cccc(c1)C[C@H](NC(=O)[C@H](C(C)C)N(C)C(=O)[C@H]1CCN(CCO)C1)C(=O)N1CCC[C@H](N1)C(=O)OCC(C)(C)C2 [Example A109],> 10
0.01 to 0.1,0.1 to 1,0.01 to 0.1,0.01 to 0.1,0.01 to 0.1,0.01 to 0.1,0.1 to 1,0.1 to 1,–,–,–,–,–,–,–,–,CCn1c(-c2cccnc2[C@H](C)OC)c2c3cc(ccc31)-c1cc(O)cc(c1)C[C@H](NC(=O)[C@H](C(C)C)N(C)C(=O)C1CC13CCNCC3)C(=O)N1CCC[C@H](N1)C(=O)OCC(C)(C)C2 (stereo partly drawn) [Example A151],> 10

# — patent US20230233569A1 (Revolution Medicines, Inc., priority 2020, published 2023)
